# Results: patent publication US20240103005A1, “N-ACRYLOYLINDOLES AND METHODS OF USE” (The University of Hong Kong, priority 2022, published 2024)
# “Also recorded” adds a separate entry of the source.
# How the values were obtained:
# [1] = Reaction kinetics of cysteine-reactive compounds with N-acetyl-L-cysteine methyl ester (LC-MS); type: physicochemical; details: for time to complete reaction with N-acetylcysteine methyl ester: PBS/MeOH 4:1; for calculated rate constant, fold faster than NAIA: reaction with N-Ac-Cys-OMe 250 μM
# Description: Reaction Kinetics of Cysteine-Reactive Compounds with N-Acetyl-L-Cysteine Methyl Ester
# Stock solution of cysteine-reactive compound in DMSO was diluted by PBS/MeOH solution mixture (4:1, v/v; 500 μL), reaching final concentration of 10 μM. Stock solution of N-acetyl-L-cysteine methyl ester in DMSO was then freshly prepared, and added to the compound solution at final concentration of 250 μM. The solution mixture was incubated at room temperature, and at predetermined time intervals, an aliquot of the reaction mixture (10 μL) was sent for LC-MS analysis on Waters Autopurification System using a SunFire C18 HPLC column (50×4.6 mm with 5 μm diameter particles, Waters). Separation was achieved by gradient elution from 5% to 100% MeCN in water (constant 0.1 vol % formic acid) over 4 min, isocratic elution with 100% MeCN (with 0.1 vol % formic acid) from 4 to 8 min, and returning to 5% MeCN in water (with 0.1 vol % formic acid) and equilibrated for 2 min. Selected ion chromatograms, with m/z corresponding to the molecular ion of the compound and/or the adduct, were extracted and the data was analyzed using MassLynx™ software by calculating the area under the curve. The peak area was then calibrated to concentration of the compound/adduct by a set of solution mixtures containing known concentrations of the compound/adduct.
# The reactivity of NAIA with cysteine in aqueous buffer solution has been investigated by LC-MS experiments (FIGS. 1A-1J). […] Upon addition of N-acetylcysteine methyl ester (250 μM), NAIA-5 reacted quickly and completely with N-acetylcysteine methyl ester within […], as reflected by the diminishment of the peak of NAIA-5 at t=6.20 min with a concomitant growth of a new peak at t=5.60 min in the LC, which is attributable to the cysteine adduct of NAIA-5 based on the MS (FIGS. 1B-1G). […] This highlights the important contribution of aromaticity of indole scaffold to increase electrophilicity of acrylamide warhead for fast and complete cysteine reaction in aqueous buffer solution.
# Next, we monitored the reaction between NAIA-amide (10 μM) and N-acetylcysteine methyl ester (250 μM) by LC-MS analysis (FIG. 17A). Complete conversion of NAIA-C5 amide was observed within 40 s as indicated by the disappearance of NAIA-C5 amide peak (t=5.09 min) and emergence of the adduct peat (t=4.80 min) in the LC trace (FIG. 17B). Likewise, the reaction of NAIA-C4 amide proceeded with fast kinetics and was completely consumed in 1 min (FIG. 17C). The calculated rate constant of NAIA-C5 amide and NAIA-C4 amide were 2-fold and 1.2-fold faster than NAIA (FIG. 17D). […] Owning to the excellent reaction rate of NAIA-C5 amide, it was taken forward for further comparative analysis in subsequent experiments.
# [2] = Selectivity for reacting with Cys over other amino acids (LC-MS); type: physicochemical; details: compound 10 μM, amino acid 30 μM (3 equiv.), 30 min, PBS/MeOH 4:1
# Description: Selectivity of NAI for Reacting with Cys Over Other Amino Acids
# Stock solution of NAIA-4 and NAIA-5, respectively, in DMSO was diluted by PBS/MeOH solution mixture (4:1, v/v; 500 μL), reaching final concentration of 10 μM. Stock solution of amino acid in DMSO was then freshly prepared, and added to the compound solution at final concentration of 30 μM. The solution mixture was incubated at room temperature for 30 min. After that, an aliquot of the reaction mixture (10 μL) was sent for LC-MS analysis. Selected ion chromatograms, with m/z=325 corresponding to [NAIA-4+H]^+ or [NAIA-5+H]^+, were extracted and analyzed by integrating the area under curve.
# (§1) As fast-reacting probes are often susceptible to hydrolysis, we sought to investigate the aqueous stability of NAIA-C5 amide. […] Taking the excellent reaction kinetics and a mere 14% degradation in 30 min into account, NAIA-C5 amide was considered to be a useful tool in cysteine profiling (FIG. 17C and FIG. 17F).
# 231MFP cell lysates = test: Gel-based ABPP, Cys labeling of 231MFP cell lysates (in-gel fluorescence); type: biochemical; details: 30 min incubation
# Description: FIGS. 10A-10D. Gel-based ABPP experiments of NAIA-4 to investigate its ability to label Cys in cell lysates and live cells. (FIGS. 10A-10B) 231MFP cell lysates (20 μg) were incubated with NAIA-4 or IAA at indicated concentrations for 30 min, following by CuAAC reaction with azide-fluor 545 (5 μM). The labeled proteins were then boiled with sampling buffer, and read out by in-gel fluorescence after SDS-PAGE. Quantified data were shown in average±s.e.m. from n=3 replicates/group. Statistical significance vs untreated control is expressed as *p<0.05; ***p<0.001, and vs different treatment groups is expressed as “p<0.01; ^###p<0.001. (FIGS. 10C-10D) 231MFP cells were pre-treated with NAIA-4 or IAA at indicated concentrations for 1 h. […] The cell lysates were labeled with azide-fluor 545 (25 μM) by CuAAC reaction, and the labeled protein were detected by in-gel fluorescence after SDS-PAGE. Quantified data were shown in average±s.e.m. from n=3 biological replicates/group. Statistical significance is expressed as *p<0.05; ***p<0.001.
# In-Gel Fluorescence for Visualizing Cys Labeling by NAIAs and IAA In Vitro
# HepG2 or 231MFP cells were lysed by probe sonication in DPBS, and cell debris were removed by centrifugation at 1,000 g for 5 min. Protein concentration of the lysates was determined by bicinchoninic acid (BCA) assay, and the lysates were then diluted to 2 mg/mL by DPBS. […]
# 231MFP cells [3] = test: Gel-based ABPP, Cys labeling in live 231MFP cells; type: cell-based; details: 1 h pre-treatment
# Description: FIGS. 10A-10D. Gel-based ABPP experiments of NAIA-4 to investigate its ability to label Cys in cell lysates and live cells. (FIGS. 10A-10B) 231MFP cell lysates (20 μg) were incubated with NAIA-4 or IAA at indicated concentrations for 30 min, following by CuAAC reaction with azide-fluor 545 (5 μM). The labeled proteins were then boiled with sampling buffer, and read out by in-gel fluorescence after SDS-PAGE. Quantified data were shown in average±s.e.m. from n=3 replicates/group. Statistical significance vs untreated control is expressed as *p<0.05; ***p<0.001, and vs different treatment groups is expressed as “p<0.01; ^###p<0.001. (FIGS. 10C-10D) 231MFP cells were pre-treated with NAIA-4 or IAA at indicated concentrations for 1 h. The cells were then washed with DPBS and lysed in DPBS by probe sonication. The cell lysates were labeled with azide-fluor 545 (25 μM) by CuAAC reaction, and the labeled protein were detected by in-gel fluorescence after SDS-PAGE. Quantified data were shown in average±s.e.m. from n=3 biological replicates/group. Statistical significance is expressed as *p<0.05; ***p<0.001.
# In-Gel Fluorescence for Visualizing Cys Labeling by NAIAs and IAA in Live Cells
# 231MFP or HepG2 cells were grown in 10-cm plates in complete medium. […] Protein concentration of the lysates was determined by BCA assay, and the lysates were diluted to 2 mg/mL by DPBS. […]
# 231MFP cells [4] = test: WST-8 cell viability assay; type: cell-based; details: WST-8, 2 h incubation; read-out: IC50 (cytotoxicity)
# Description: WST-8 Cell Viability Assay of Cells Treated with NAIA-4 or IAA
# 231MFP cells were plated on 96-well plates (Corning, 3904) at 30,000 cells per well and allowed to grow in complete medium overnight. The cells were then incubated with DMSO solvent control, NAIA-4 or IAA at indicated concentrations for 2 h. The solution was replaced with new culture medium containing 10 μL of WST-8 solution (Abcam; ab228554) and incubated for 2 h in dark at 37° C. Cell viability were then assayed by the absorption at 460 nm on SpectraMax i3 (Molecular Devices).
# [5] = Stability in aqueous buffer solution over time (LC-MS); type: physicochemical
# Description: Stability of NAIA-5 in Aqueous Buffer Solution Over Time
# NAIA-5 (10 μM) was dissolved in PBS/MeOH solution mixture (4:1, v/v; 500 μL) and stay at room temperature. At predetermined time intervals, an aliquot of the reaction mixture (10 μL) was sent for LC-MS analysis on Waters Autopurification System using a SunFire C18 HPLC column (50×4.6 mm with 5 μm diameter particles, Waters). Separation was achieved by gradient elution from 5% to 100% MeCN in water (constant 0.1 vol % formic acid) over 4 min, isocratic elution with 100% MeCN (with 0.1 vol % formic acid) from 4 to 8 min and returning to 5% MeCN in water (with 0.1 vol % formic acid) and equilibrated for 2 min. Selected ion chromatograms, with m/z=325 corresponding to [NAIA-5+H]^+, were extracted and analyzed by integrating the area under curve.
# as §1
# HCT116 cell lysates = test: Gel-based ABPP, Cys labeling of HCT116 cell lysates; type: biochemical
# Description: FIGS. 18A-18B Gel-based ABPP analysis of NAIA-amides, NAIA-5 and IAA on Cys labeling of HCT116 cell lysates in vitro. HCT116 cell lysates (100 μg) were incubated with the compounds at indicated concentrations and time intervals, following by CuAAC reaction with azide-fluor 545 (25 μM). The labeled proteins were then boiled with sampling buffer, and read out by in-gel fluorescence after SDS-PAGE.
# Confirming the reaction between NAIA-C5 amide and cysteine in vitro, we moved on to evaluate its application for cysteine profiling in complex biological sample. To assess this, we performed gel-based ABPP in cell lysates and in live cells. HCT116 cell lysates were incubated with IAA, NAIA and NAIA-Amide, followed by installation of fluorophore by click chemistry. Then, the labelled proteins were resolved by SDS-PAGE and visualized by their in-gel fluorescence. […] In time-dependent experiments, a 15-minute incubation of NAIA-C5 amide with HCT116 cell lysates was sufficient to have decent labeling, highlighting its quick labeling (FIG. 18B).
# [6] = compound 10 μM, N-Ac-Cys-OMe 250 μM
smiles,measurement,setting,value
C#CCCCCNC(=O)COc1cccc2c1ccn2C(=O)C=C [NAIA-4],time to complete reaction with N-acetylcysteine methyl ester,[1]; [6],≤ 120 s
same,selectivity toward cysteine over other amino acids,[2],excellent selectivity toward cysteine over other amino acids; also recorded: Significant decreases in NAIA-4 and NAIA-5 levels were only found in the solution mixture with N-acetyl-L-cysteine methyl ester
same,cysteine labeling (in-gel fluorescence) compared with IAA,231MFP cell lysates,better labeling from NAIA-4 than IAA at all the doses tested
same,cysteine labeling in live cells (in-gel fluorescence) compared with IAA,231MFP cells [3],more labeling of functional cysteines by NAIA-4 than IAA
same,IC50,231MFP cells [4],> 40 µM
C#CCCCCNC(=O)c1cn(C(=O)C=C)c2ccccc12 [NAIA-C3 amide],cysteine reaction rate (in words),[1]; [6],reacted relatively slower despite it still showed superior reaction kinetics over IAA
C#CCCCCNC(=O)c1cccc2c1ccn2C(=O)C=C [NAIA-C4 amide],time to complete consumption by N-acetylcysteine methyl ester,[1]; [6],1 min
same,"calculated rate constant, fold faster than NAIA",[1],1.2 fold
C#CCCCCNC(=O)c1ccc2c(ccn2C(=O)C=C)c1 [NAIA-C5 amide],time to complete reaction with N-acetylcysteine methyl ester,[1]; [6],≤ 40 s
same,"calculated rate constant, fold faster than NAIA",[1],2 fold
same,selectivity toward cysteine over other amino acids,[2],only incubation with cysteine consumed NAIA-C5 amide to an undetectable level
same,change of compound level in aqueous buffer solution over time (in words),"[5]; 10 μM, PBS/MeOH 4:1, room temperature",gradual degradation was observed in 3 hours
same,degradation in aqueous buffer,[5]; 30 min,14%
same,in-gel fluorescence (in words),HCT116 cell lysates,comparable to that by NAIA; also recorded: significantly stronger fluorescence was detected in samples incubated with NAIA or NAIA-C5 amide in a dose-dependent manner
same,"overall in-gel fluorescence intensity, fold higher than IAA",HCT116 cell lysates,3 fold
same,incubation time sufficient for decent labeling,HCT116 cell lysates; time-dependent experiment,15 min
"C=CC(=O)N1CCc2ccccc21 [NAine, N-acryloylindoline]",reaction kinetics with cysteine (k),[1]; FIG. 7 legend summary,< 10^0 M^−1 s^−1
